{"source": "paper PMC7821884", "about": "“BRAF inhibition protects against hearing loss in mice” (Science Advances, 2020)", "key": {"[1]": {"test_system": "P3-P4 FVB mouse cochlear explants", "settings": "FVB, mouse, 24 h", "description": "Mouse cochlear explants are widely recognized as an alternative to in vivo cochlear models and pragmatic for focused drug screening ([37]). […] Medium-alone, drug-alone, and cisplatin-alone treatments were used as controls.\nP3-P4 FVB mouse cochleae were dissected and maintained in culture on filter inserts in six-well plates with 1 ml of growth medium DMEM (12430-054,Gibco Life Technologies), with 1% FBS (16000-044, Gibco Life Technologies), B-27 supplement (200 μl/500 ml; 17504-44, Gibco Life Technologies), N-2 supplement (100 μl/500 ml; 17502-048, Gibco Life Technologies), and ampicillin (50 μg/ml; A5354-10ML, Sigma-Aldrich) both inside and outside the filter (Millicell, PICM03050, Millipore). […] Cochleae were imaged by confocal microscopy, two 160-μm regions from middle turns were photographed, and the number of intact HCs was counted. Two to five independent cochleae were tested for each experimental condition."}, "[2]": {"test_system": "HEI-OC1 cells", "assay": "Cell Titer-Glo cell viability assay, compound alone", "format": "cell-based", "settings": "all concentrations tested", "excerpt": "All compounds were further characterized via Cell Titer-Glo cell viability assay to determine toxicity of the compound alone in HEI-OC1 cells (table S1 and dataset in the Supplementary Materials). […] The other BRAF inhibitors had similar IC50 in the micromolar range and were nontoxic to cells (table S1).\nIn these screens, caspase-3 cleavage was chosen as the end point indicating cisplatin-induced apoptosis, because it allowed the inhibition of cell death to be monitored at the level of any molecular target upstream of caspase-3 cleavage in the HEI-OC1 cell line. Cells were plated at a previously optimized concentration of 1600 cells per well in medium without γ-interferon to limit proliferation and tested against 50 μM cisplatin based on a previous dose–response curve. Tested compounds were dissolved in DMSO before addition to medium with a final DMSO concentration of <0.5%. The screens are described in detail in our previous publications ([12], [13]). […] Pifithrin-α was added to each plate as a screening quality control. The linearity of the Caspase-Glo 3/7 (Promega) assay, which enables the measurement of light emitted as a result of caspase-3/7 cleavage and is suitable for HTS, was validated, and it was verified that 0.5% DMSO had no effect on the cell death kinetics. Compounds were screened in triplicate at final concentrations ranging from 1 nM to 85 μM and incubated for 22 hours. […]"}, "[3]": {"test_system": "P42 FVB mice", "assay": "Noise-induced hearing loss in adult mice (ABR, DPOAE, Ctbp2 puncta, pERK)", "format": "in vivo, mouse", "description": "Noise injury cannot always be predicted, and pretreatment is often not an option.\nCompounds were dissolved in a mixture of 10% DMSO, 5% Tween 80 (P1754, Sigma-Aldrich), 40% PEG-E-300 (91462-1KG, Sigma-Aldrich), and 45% 0.9% saline.\nABR in mice was measured for left ears as described previously with minor modifications ([13], [34]). In brief, ABR waveforms were recorded in a sound booth (Industrial Acoustic Company) by using subdermal needles positioned in the skull, below the pinna, and at the base of the tail, and the responses were fed into a low-impedance Medusa digital biological amplifier system (RA4L; TDT; 20-dB gain). At each frequency, the stimulus intensity was reduced from 90 to 0 dB in 10-dB steps to determine the threshold decibel SPL when the electrical response was just above the noise floor. ABR waveforms were averaged in response to 500 tone bursts. The recorded signals were filtered by a band-pass filter from 300 Hz to 3 kHz. Pretreatment ABR recordings of adult FVB mice (aged 6 weeks) were acquired 1 week before all treatments, and posttreatment ABR measurements were recorded 21 days after cisplatin treatment or 14 days after noise exposure. ABR threshold was determined by the presence of any of three or more of the five waveform peaks. […] All thresholds and shifts were determined independently by two experimenters for each mouse. Individual ABR wave 1 amplitudes were measured as the difference between the positive peak and the following negative trough.\nMice were placed in individual cages in a custom-made acrylic chamber. The sound stimulus was produced by System RZ6 (TDT) equipment and amplified using a 75-A power amplifier (Crown). Sound was delivered to the acrylic chamber via a speaker horn (JBL). The SPL was calibrated with a 1/4-inch free-field microphone (PCB). Before experimental noise exposure, four quadrants of the cage inside the chamber were sampled with the 1/4-inch microphone to ensure that the SPL varied by <0.5 dB across the measured positions. Adult mice were then exposed to 2 hours of octave band noise (8 to 16 kHz) at 100 dB.\nOrgans of Corti were costained with anti-Ctbp2 and anti–myosin VI antibodies. Confocal imaging was performed using a Zeiss 700 scanning confocal microscope with a 63× objective. Visualization and projections were performed using ZEN 2009 or ZEN 2012 software (Zeiss). Ctbp2 puncta were visualized and counted on the reconstructed three-dimensional images by using the ZEN 2009 or ZEN 2012 three-dimensional construct function as previously reported ([54]). […] Images were acquired around 16-kHz cochlear regions, and each image included 12 to 18 IHCs that were quantified as total number of Ctbp2 puncta divided by total number of IHCs per image."}}, "data": [{"smiles": "CC(C)(C)c1nc(-c2cccc(NS(=O)(=O)c3c(F)cccc3F)c2F)c(-c2ccnc(N)n2)s1", "note": "[dabrafenib]", "values": [{"measurement": "LD50 (median lethal dose)", "setting": "[1]", "value": "> 60", "unit": "µM"}, {"measurement": "toxicity of the compound alone, cell viability assay", "setting": "[2]", "value": "nontoxic"}, {"measurement": "loss of Ctbp2 puncta per IHC at 16-kHz region", "setting": "[3]; 100 mg/kg pretreatment", "value": "partially rescued"}, {"measurement": "effect on noise-reduced 16-kHz ABR wave 1 amplitude", "setting": "[3]; 100 mg/kg pretreatment, 80- and 90-dB SPL", "value": "significantly mitigated"}, {"measurement": "noise-induced ERK phosphorylation in SCs", "setting": "[3]; pretreatment, 3 hours after noise", "value": "reduced ERK phosphorylation"}]}]}
